Our source for the Reaction rate values is patent US20260152395A1, “SUSTAINED-RELEASE CHLORINE DIOXIDE GAS […] AND METHOD” (ABC MEDICAL CO., LTD., priority 2022, published 2026).

The data set is described as follows: Chlorine dioxide generation test 1: organic substance added to sodium chlorite solution, reactivity observed. The data set is classed as physicochemical. The arrangement: key: high reaction rate (+++++) resulted in the initiation of chlorine dioxide gas generation relatively quickly within several hours to several days after the addition; intermediate reaction rate (+++) resulted in the initiation of chlorine dioxide gas generation within several days to several tens of days after the addition; The reaction initiation time of the organic substances with a slow reaction rate (+) is hard to specify. The following applies: organic substance added to 23% aqueous sodium chlorite; room temperature and refrigerated temperature. The method, then:
To investigate the reactivity with and the risk of sodium chlorite depending on the type of organic substance, each of organic substances in Table 1 was added to a 23% aqueous solution of sodium chlorite to observe the reactivity at room temperature and refrigerated temperature.

Structures are written as SMILES.

On to `OC[C@H]1O[C@@](CO)(O[C@H]2O[C@H](CO)[C@@H](O)[C@H](O)[C@H]2O)[C@@H](O)[C@@H]1O` [Sucrose], for which the Reaction rate entry is recorded as “+++”. For `OO` [Hydrogen peroxide] the value was “No reaction”; for `[Ca+2].[OH-].[OH-]` [Calcium hydroxide], “No reaction”.

In the case of `[O]=[Ca]` [Calcium oxide], the Reaction rate entry was “No reaction”. As for `OCC(O)CO` [Glycerol], the entry is “+++++”; as for `N[C@@H](CCC(=O)[O-])C(=O)[O-].[Na+].[Na+]` [Sodium glutamate], “+++++”; as for `O=C1NS(=O)(=O)c2ccccc21.[Na]` [Sodium saccharin], “+++”.

As for `O=C(CO)[C@@H](O)[C@H](O)[C@H](O)CO` [Fructose], the Reaction rate entry is given as “+++”. As for `[Cl-].[Na+]` [Salt], the entry is “No reaction”; as for `[K+].[OH-]` [Potassium hydroxide], “No reaction”; as for `OC[C@@H](O)[C@@H](O)[C@H](O)[C@@H](O)CO` [Sorbitol], “+++”. As for `CCO` [Ethanol], the entry is “+++++”; as for `[Na+].[OH-]` [Sodium hydroxide], “No reaction”. As for `OC[C@H]1O[C@H](O[C@H]2O[C@H](CO)[C@@H](O)[C@H](O)[C@H]2O)[C@H](O)[C@@H](O)[C@@H]1O` [Trehalose], the Reaction rate entry is “+++”.

Consider `O=C([O-])[O-].[Na+].[Na+]` [Sodium carbonate], for which the Reaction rate result is “+”.
